Experimental data taken from PMC8871626, “UPLC-PDA-ESI-QTOF-MS/MS fingerprint of purified flavonoid enriched fraction of Bryophyllum pinnatum; antioxidant properties, anticholinesterase activity and in silico studies” (Pharmaceutical Biology, 2021).

Key:
Format in all cases: biochemical
[1] = DPPH radical scavenging assay; conditions: for DPPH radical IC50: 3.125–100 µg/mL, 30 min in the dark, absorbance 518 nm, triplicate; for IC50: IC50 values in µM presented for comparison
Protocol: Based on the principle, when DPPH reacts with an antioxidant compound that can donate hydrogen, it is reduced. The change in colour from deep violet to golden/light yellow can be measured at 518 nm. Briefly, 1 mL of 0.3 mM of DPPH solution was added to 1 mL of each of the test solutions. […] The mixtures were vortexed thoroughly and allowed to stand at room temperature in the dark for 30 min, […]. The absorbance values were recorded at 518 nm, and converted into percentage antioxidant activity, using the formula below: Results were expressed as a percentage of inhibitions (100%). […] Each test was carried out in triplicates.
The % DPPH scavenging effect of the antioxidant was calculated as follows: (1) %DPPH scavenging effect=[A control – A sample/Acontrol]× 100

[2] = system: Fe2+-induced lipid peroxidation in rat brain homogenate; experiment: Fe2+-induced lipid peroxidation (TBARS) assay in brain homogenate; conditions: for Lipid peroxidation IC50: FeSO4, 37 °C 30 min, TBARS 532 nm; for IC50: IC50 values in µM presented for comparison, read-out: LP (IC50 in µM)
Protocol: Thiobarbituric acid reactive species (TBARS) assay was used to measure the lipid peroxide formed using brain tissue homogenates as lipid-rich media, as described by Ruberto et al. ([2000]) with slight modifications. […] Thereafter, 0.05 mL of FeSO4 was added and the mixture was incubated at 37 °C for 30 min. Then, 1.5 mL of acetic acid was added, followed by 1.5 mL of TBA in SDS. The resulting mixture was mixed and heated at 95 °C for 60 min. After cooling, 5 mL of butanol was added and the mixture was centrifuged at 3000 rpm for 10 min. The absorbance of the organic upper layer was measured at 532 nm and the percentage inhibition was calculated with the formula: (2) %inhibition=[A control – A sample/Acontrol]×100

rat serum BuChE = molecular target: T1, rat serum BuChE (Rattus norvegicus, UniProt Q9JKC1); experiment: BuChE inhibition, Ellman's colorimetric method; conditions: BuChE IC50, rat blood enzyme, butyrylthiocholine iodide
T1 construct: from tissue; host or cells: rat blood (serum)
T1 sequence (Q9JKC1 24-597): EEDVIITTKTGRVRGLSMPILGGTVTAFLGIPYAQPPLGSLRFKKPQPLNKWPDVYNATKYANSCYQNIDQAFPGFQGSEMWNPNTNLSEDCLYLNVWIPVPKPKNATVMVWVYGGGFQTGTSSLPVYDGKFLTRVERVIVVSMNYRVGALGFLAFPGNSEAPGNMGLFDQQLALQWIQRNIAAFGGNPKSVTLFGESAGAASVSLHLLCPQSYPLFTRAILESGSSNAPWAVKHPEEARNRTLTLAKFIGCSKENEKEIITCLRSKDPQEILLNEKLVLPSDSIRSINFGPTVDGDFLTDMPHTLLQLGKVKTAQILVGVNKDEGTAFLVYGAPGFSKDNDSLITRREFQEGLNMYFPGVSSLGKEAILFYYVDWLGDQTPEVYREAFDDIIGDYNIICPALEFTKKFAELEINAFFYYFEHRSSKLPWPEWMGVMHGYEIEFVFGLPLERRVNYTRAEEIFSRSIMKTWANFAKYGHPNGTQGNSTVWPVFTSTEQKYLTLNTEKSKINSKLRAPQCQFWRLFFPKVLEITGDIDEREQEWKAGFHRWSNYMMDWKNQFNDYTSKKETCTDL
Protocol: Whole-brain tissue from adult male Wistar rat was used as a source of AChE enzyme and a lipid-rich media for lipid peroxidation assay while rat blood tissue was used as a source of BuChE enzyme.
For the enzyme source, the rat brains were homogenized in a homogenizer with 10 volumes of a homogenization buffer (10 mM Tris-HCl, pH 7.2) containing 1 M NaCl, 50 mM MgCl2 and1% Triton X-100 and centrifuged at 10,000 rpm for 30 min. The resulting supernatants were collected, and the solution of these supernatants was used as an enzyme source. The temperature was maintained at 4 °C throughout the excretion procedure. The rate of AChE hydrolysis was monitored spectrophotometrically. […] Absorbance at 405 nm was recorded immediately after adding Ellman’s reaction mixture (3.5 mL; 0.5 mM acetylthiocholine, 1 mM DTNB) in a 50 mM sodium phosphate buffer (pH 8.0) to the reaction mixture. Readings were repeated for 30 min to verify the reaction. […] The percentage of AChE inhibition was calculated using the following formula: (3) %Cholinesterase inhibition=[A control – A sample/Acontrol]×100
Assessment of BuChE inhibition was performed as described in Equation (3) except that the enzyme solution was (100 μL) acetylthiocholine iodide was replaced with butyrylthiocholine iodide. All other reagents and conditions remained the same.

Row | SMILES | DPPH radical IC50 [1] | IC50 [1] | Lipid peroxidation IC50 [2] | IC50 [2] | IC50 (rat serum BuChE)
1 | O=C1O[C@H]([C@@H](O)CO)C(O)=C1O [Ascorbic acid, ascorbic acid] | 10.186 ± 0.14 µg/mL | 57.8 ± 0.827 µM | 14.393 ± 0.54 µg/mL | 81.72 ± 0.309 µM | 
2 | O=c1c(O)c(-c2ccc(O)c(O)c2)oc2cc(O)cc(O)c12 [Quercetin] | 13.803 ± 0.34 µg/mL | 45.7 ± 1.13 µM | 25.242 ± 1.97 µg/mL | 83.51 ± 0.654 µM | 80.5 µM
